The text below walks through data of US20260027101A1, “BACTERIAL TOPOISOMERASE INHIBITORS” (priority 2022, published 2026).

Format in all cases: cell-based
Assay [1] relates to Pseudomonas aeruginosa ATCC 27853. Put plainly: MIC, Pseudomonas aeruginosa ATCC 27853. How it is done: (§1) Minimum inhibitory concentrations (MICs) were determined in triplicate according to Clinical and Laboratory Standards Institute (CLSI) guidelines using one or more strains of S. aureus or selected Gram-negative bacteria. […] Compounds were also assayed using a USA300 (Hidron, A. I., et al., Emergence of Community-Acquired Meticillin-Resistant Staphylococcus aureus Strain USA300 as a Cause of Necrotising Community-Onset Pneumonia. Lancet Infect. Dis. 2009, 9. 384-392) isolate of MRSA as well as a S. aureus strain isolated from a cystic fibrosis patient.

Assay [2] concerns Acinetobacter baumanii ATCC 19606. The assay is described as follows: MIC, Acinetobacter baumanii ATCC 19606. The note with it: Acinetobacter baumannii. As for the experimental part:
as §1

Assay [3] relates to Staphylococcus aureus M121K (29213-derived strain, GyrA substitution). Put plainly: microbe, parasite or virus in culture. To be noted: read-out: MIC against Staphylococcus aureus M121K. How it is done: as §1
The test system of assay [4] is Salmonella enterica 14028 ΔtolC (efflux-deficient strain). Put plainly: microbe, parasite or virus in culture. The note with it: for MIC: Salmonella enterica, read-out: MIC against Salmonella enterica 14028 ΔtolC. As for the experimental part: as §1
In assay [5] the test system is Staphylococcus aureus D83N (29213-derived strain, GyrA substitution). The assay is described as follows: microbe, parasite or virus in culture. The note with it: read-out: MIC against Staphylococcus aureus D83N. How it is done: as §1
Assay [6] has as its system Staphylococcus aureus CF isolate. Put plainly: MIC, S. aureus cystic fibrosis isolate (CLSI). To be noted: read-out: MIC against Staphylococcus aureus CF isolate. How it is done: as §1
Assay [7] has as its system Staphylococcus aureus ATCC 29213. The assay is described as follows: MIC, S. aureus ATCC 29213 (CLSI). As for the experimental part: as §1
Assay [8] concerns Escherichia coli ATCC 25922. The assay is described as follows: MIC, Escherichia coli ATCC 25922. How it is done: as §1
The test system of assay [9] is Salmonella enterica ATCC 14028. Put plainly: MIC, Salmonella enterica ATCC 14028. How it is done:
as §1

Assay [10] relates to Staphylococcus aureus USA300 (MRSA isolate). The assay is described as follows: MIC, S. aureus USA300 MRSA isolate (CLSI). The note with it: read-out: MIC against Staphylococcus aureus USA300. As for the experimental part: as §1
Setting [11] is: ATCC27853, read-out: MIC against Pseudomonas aeruginosa ATCC 27853.
[12] abbreviates: ATCC19606, read-out: MIC against Acinetobacter baumanii ATCC 19606.
The mark [13] stands for this setting: ATCC29213, read-out: MIC against Staphylococcus aureus ATCC 29213.
Setting [14] is: ATCC25922, read-out: MIC against Escherichia coli ATCC 25922.
Setting [15] is: ATCC14028, read-out: MIC against Salmonella enterica ATCC 14028.
[16] abbreviates: ATCC27853, strain ATCC 27853, read-out: MIC against Pseudomonas aeruginosa ATCC 27853.
Where [17] appears, read: ATCC19606, strain ATCC 19606, read-out: MIC against Acinetobacter baumanii ATCC 19606.
The mark [18] stands for this setting: ATCC29213, strain ATCC 29213, triplicate, CLSI, read-out: MIC against Staphylococcus aureus ATCC 29213.
[19] abbreviates: ATCC25922, strain ATCC 25922, read-out: MIC against Escherichia coli ATCC 25922.
[20] abbreviates: ATCC14028, strain ATCC 14028, read-out: MIC against Salmonella enterica ATCC 14028.
[21] abbreviates: USA300 MRSA isolate, ciprofloxacin-resistant.

SMILES strings stand for the structures. In brackets after ≈: the same amount, converted by molar mass. Read-outs that look alike come from different tables or passages of the source.

`COc1ccc2ncc(F)c(CCN3CCC(/C=C\c4ccc5c(c4)OCCO5)CC3)c2n1` [Example 11, (Z)-8-(2-(4-(2-(2,3-dihydrobenzo[b][1,4]dioxin-6-yl)vinyl)piperidin-1-yl)ethyl)-7-fluoro-2-methoxy-1,5-naphthyridine]: the MIC was 64 µg/mL (≈ 142 µM) in assay [1] (setting [11]); 64 µg/mL (≈ 142 µM) in assay [2] (setting [12]); above 16 µg/mL in assay [3]; 4 µg/mL (≈ 8.9 µM) in [4]; above 16 µg/mL in assay [5]; 9 µg/mL (≈ 20 µM) in assay [6]. For the same compound, the MIC was 8 µg/mL (≈ 17.8 µM) in assay [7] (setting [13]), above 64 µg/mL in [8] (setting [14]), above 64 µg/mL in [9] (setting [15]) and 8 µg/mL (≈ 17.8 µM) in assay [10].

Regarding `COc1ccc2ncc(F)c(CCN3CCC([C@@H]4OC(=O)O[C@H]4c4ccc(C)cc4)CC3)c2n1` [Example 31, (4S,5S)-4-(1-(2-(3-fluoro-6-methoxy-1,5-naphthyridin-4-yl)ethyl)piperidin-4-yl)-5-(p-tolyl)-1,3-dioxolan-2-one], the MIC was above 64 µg/mL in [1] (setting [16]); 64 µg/mL (≈ 137 µM) in [2] (setting [17]); above 32 µg/mL in [3]; 8 µg/mL (≈ 17.2 µM) in [4]; above 32 µg/mL in assay [5]; 4 µg/mL (≈ 8.59 µM) in assay [6] (isolate from individual with cystic fibrosis). Further, the MIC was 2 µg/mL (≈ 4.3 µM) in assay [7] (setting [18]), above 64 µg/mL in [8] (setting [19]), above 64 µg/mL in assay [9] (setting [20]) and 2 µg/mL (≈ 4.3 µM) in assay [10] (setting [21]).

Turning to `COc1ccc2ncc(F)c(CCN3CCC(/C=C/c4ccc5c(c4)NC(=O)CO5)CC3)c2n1` [Example 3, (E)-6-(2-(1-(2-(3-fluoro-6-methoxy-1,5-naphthyridin-4-yl)ethyl)piperidin-4-yl)vinyl)-2H-benzo[b][1,4]oxazin-3(4H)-one], the MIC in assay [1] (setting [11]) was 4 µg/mL (≈ 8.65 µM); in assay [2] (setting [12]), 8 µg/mL (≈ 17.3 µM); in assay [3], 16 µg/mL (≈ 34.6 µM); in assay [4], 0.25 µg/mL (≈ 0.541 µM); in assay [5], 16 µg/mL (≈ 34.6 µM); in [6], 1 µg/mL (≈ 2.16 µM). For the same compound, the MIC in assay [7] (setting [13]) was 0.5 µg/mL (≈ 1.08 µM); in assay [8] (setting [14]) it was 4 µg/mL (≈ 8.65 µM); in assay [9] (setting [15]), 16 µg/mL (≈ 34.6 µM); in assay [10] it was at most 0.25 µg/mL.

Consider `COc1ccc2ncc(F)c(CCN3CCC(/C=C/c4ccc5c(c4)OCCO5)CC3)c2n1` [Example 2, (E)-8-(2-(4-(2-(2,3-dihydrobenzo[b][1,4]dioxin-6-yl)vinyl)piperidin-1-yl)ethyl)-7-fluoro-2-methoxy-1,5-naphthyridine], for which the MIC in assay [1] (setting [11]) came out at 64 µg/mL (≈ 142 µM); in assay [2] (setting [12]), 8 µg/mL (≈ 17.8 µM); in assay [3], 2 µg/mL (≈ 4.45 µM); in assay [5], 2 µg/mL (≈ 4.45 µM); in assay [6], 0.5 µg/mL (≈ 1.11 µM); in assay [7] (setting [13]), 0.25 µg/mL (≈ 0.556 µM). For the same compound, the MIC was 8 µg/mL (≈ 17.8 µM) in assay [8] (setting [14]), 64 µg/mL (≈ 142 µM) in assay [9] (setting [15]) and 0.5 µg/mL (≈ 1.11 µM) in assay [10]. Also, the “MIC against Salmonella enterica 14028 ΔtolC” value in assay [4] (efflux-deficient strain) came out at 0.125 µg/mL (≈ 0.278 µM).

As to `O=c1ccc2ncc(=O)n3c2n1C[C@H]3CN1CCC(NCc2cc3c(cn2)OCCC3)CC1` [gepotidacin, reference compound], the MIC in assay [1] (setting [16]) is 2 to 16 µg/mL (≈ 4.46 to 35.7 µM); in assay [2] (setting [17]) it was 32 to 64 µg/mL (≈ 71.3 to 143 µM); in [3], 8 to 32 µg/mL (≈ 17.8 to 71.3 µM); in assay [4], 0.125 to 0.5 µg/mL (≈ 0.279 to 1.11 µM); in [5], 4 to 32 µg/mL (≈ 8.92 to 71.3 µM); in assay [6], 0.125 to 0.5 µg/mL (≈ 0.279 to 1.11 µM). Also, the MIC lay in the range of 0.25 to 1 µg/mL (≈ 0.557 to 2.23 µM) in assay [7] (setting [18]), 0.5 to 2 µg/mL (≈ 1.11 to 4.46 µM) in assay [8] (setting [19]), 2 to 8 µg/mL (≈ 4.46 to 17.8 µM) in [9] (setting [20]) and 0.125 to 1 µg/mL (≈ 0.279 to 2.23 µM) in assay [10] (setting [21]).
